Measured values reported in ChEMBL document CHEMBL5696441 (Nat Chem Biol, 2011).

Tests used:
[1] = target: AP2-associated protein kinase 1 (Homo sapiens) (UniProt Q2M2I8); assay: Inhibition of AAK1 (unknown origin) assessed as remaining activity at 1 uM by Kinome scan method relative to control
[2] = target: RAC-alpha serine/threonine-protein kinase (Homo sapiens) (UniProt P31749); assay: Inhibition of AKT1 (unknown origin) assessed as remaining activity at 1 uM by Kinome scan method relative to control
[3] = target: Cytoplasmic tyrosine-protein kinase BMX (Homo sapiens) (UniProt P51813); assay: Inhibition of BMX (unknown origin) assessed as remaining activity at 1 uM by Kinome scan method relative to control
Chain of Cytoplasmic tyrosine-protein kinase BMX (Homo sapiens) (P51813 whole entry): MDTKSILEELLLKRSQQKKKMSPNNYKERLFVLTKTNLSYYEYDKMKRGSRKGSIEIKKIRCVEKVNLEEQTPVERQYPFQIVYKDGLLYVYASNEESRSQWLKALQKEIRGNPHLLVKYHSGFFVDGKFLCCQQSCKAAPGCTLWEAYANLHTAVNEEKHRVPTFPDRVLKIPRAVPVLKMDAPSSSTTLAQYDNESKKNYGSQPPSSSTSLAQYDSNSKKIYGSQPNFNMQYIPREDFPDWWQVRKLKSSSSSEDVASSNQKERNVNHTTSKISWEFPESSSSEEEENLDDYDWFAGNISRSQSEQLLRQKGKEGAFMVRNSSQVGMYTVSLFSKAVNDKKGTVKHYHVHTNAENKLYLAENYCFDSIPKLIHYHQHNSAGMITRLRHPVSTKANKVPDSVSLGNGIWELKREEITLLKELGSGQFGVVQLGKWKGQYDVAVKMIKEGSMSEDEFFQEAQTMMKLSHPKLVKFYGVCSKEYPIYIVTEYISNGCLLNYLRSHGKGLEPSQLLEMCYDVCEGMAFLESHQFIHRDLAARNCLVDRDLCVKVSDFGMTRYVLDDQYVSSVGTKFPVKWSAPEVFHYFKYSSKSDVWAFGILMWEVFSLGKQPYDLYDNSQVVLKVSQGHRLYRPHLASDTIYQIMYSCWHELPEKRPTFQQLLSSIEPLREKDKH

[4] = target: Dual specificity tyrosine-phosphorylation-regulated kinase 1B (Homo sapiens) (UniProt Q9Y463); assay: Inhibition of DYRK1B (unknown origin) assessed as remaining activity at 1 uM by Kinome scan method relative to control
[5] = target: Ephrin type-A receptor 6 (Homo sapiens) (UniProt Q9UF33); assay: Inhibition of EPHA6 (unknown origin) assessed as remaining activity at 1 uM by Kinome scan method relative to control
[6] = target: Ephrin type-B receptor 2 (Homo sapiens) (UniProt P29323); assay: Inhibition of EPHB2 (unknown origin) assessed as remaining activity at 1 uM by Kinome scan method relative to control
[7] = target: Tyrosine-protein kinase Fgr (Homo sapiens) (UniProt P09769); assay: Inhibition of FGR (unknown origin) assessed as remaining activity at 1 uM by Kinome scan method relative to control
[8] = tested on: Receptor-type tyrosine-protein kinase FLT3 (Homo sapiens), P36888 [N841I]; assay: Inhibition of FLT3 N841I mutant (unknown origin) assessed as remaining activity at 1 uM by Kinome scan method relative to control
[9] = target: Serine/threonine-protein kinase 38-like (Homo sapiens) (UniProt Q9Y2H1); assay: Inhibition of NDR2 (unknown origin) assessed as remaining activity at 1 uM by Kinome scan method relative to control
[10] = target: Serine/threonine-protein kinase Nek5 (Homo sapiens) (UniProt Q6P3R8); assay: Inhibition of NEK5 (unknown origin) assessed as remaining activity at 1 uM by Kinome scan method relative to control
Chain of Serine/threonine-protein kinase Nek5 (Homo sapiens) (Q6P3R8 whole entry): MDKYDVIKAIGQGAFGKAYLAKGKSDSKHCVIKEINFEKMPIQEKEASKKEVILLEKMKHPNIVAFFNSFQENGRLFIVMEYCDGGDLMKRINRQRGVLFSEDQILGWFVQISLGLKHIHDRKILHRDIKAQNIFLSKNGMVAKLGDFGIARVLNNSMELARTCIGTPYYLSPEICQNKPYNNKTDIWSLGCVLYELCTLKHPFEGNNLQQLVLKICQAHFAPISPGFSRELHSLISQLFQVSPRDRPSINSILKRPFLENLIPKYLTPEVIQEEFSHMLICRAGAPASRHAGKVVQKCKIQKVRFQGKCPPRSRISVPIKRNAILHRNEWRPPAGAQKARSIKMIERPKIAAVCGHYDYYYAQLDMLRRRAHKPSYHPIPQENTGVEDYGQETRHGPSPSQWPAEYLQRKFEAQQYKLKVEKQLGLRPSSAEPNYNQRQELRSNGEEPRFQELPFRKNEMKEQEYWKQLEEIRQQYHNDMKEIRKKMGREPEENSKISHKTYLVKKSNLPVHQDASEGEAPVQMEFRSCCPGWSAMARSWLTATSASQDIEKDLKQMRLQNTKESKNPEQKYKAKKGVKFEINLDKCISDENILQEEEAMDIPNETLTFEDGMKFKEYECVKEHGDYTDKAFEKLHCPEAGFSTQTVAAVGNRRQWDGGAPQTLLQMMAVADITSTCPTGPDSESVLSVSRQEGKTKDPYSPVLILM

[11] = target: Serine/threonine-protein kinase PAK 6 (Homo sapiens) (UniProt Q9NQU5); assay: Inhibition of PAK6 (unknown origin) assessed as remaining activity at 1 uM by Kinome scan method relative to control
[12] = target: Ribosomal protein S6 kinase alpha-1 (Homo sapiens) (UniProt Q15418); assay: Inhibition of C-terminal kinase domain RPS6KA1 (unknown origin) assessed as remaining activity at 1 uM by Kinome scan method relative to control
[13] = tested on: Tyrosine-protein kinase ABL1 (Homo sapiens), P00519 [M351T]; assay: Inhibition of human ABL1 M351T mutant assessed as residual activity at 1 uM using Poly(Ala,Glu,Lys,Tyr)6:2:5:1 as substrate in presence of 33P-ATP by ProQinase assay relative to control
[14] = target: Serine/threonine-protein kinase B-raf (Homo sapiens) (UniProt P15056); assay: Inhibition of human BRAF assessed as residual activity at 1 uM using MEK1-K97M as substrate in presence of 33P-ATP by ProQinase assay relative to control
[15] = target: Serine/threonine-protein kinase Chk2 (Homo sapiens) (UniProt O96017); assay: Inhibition of human CHK2 assessed as residual activity at 1 uM using bio-4xCHKT as substrate in presence of 33P-ATP by ProQinase assay relative to control
[16] = target: Death-associated protein kinase 3 (Homo sapiens) (UniProt O43293); assay: Inhibition of human DAPK3 assessed as residual activity at 1 uM using RBER-GSK3 as substrate in presence of 33P-ATP by ProQinase assay relative to control
[17] = tested on: Epidermal growth factor receptor (Homo sapiens), P00533 [T790M]; assay: Inhibition of human EGFR T790M mutant assessed as residual activity at 1 uM using PolyEY as substrate in presence of 33P-ATP by ProQinase assay relative to control
[18] = target: Ephrin type-B receptor 1 (Homo sapiens) (UniProt P54762); assay: Inhibition of human EPHB1 assessed as residual activity at 1 uM using polyEY as substrate in presence of 33P-ATP by ProQinase assay relative to control
Chain of Ephrin type-B receptor 1 (Homo sapiens) (P54762 whole entry): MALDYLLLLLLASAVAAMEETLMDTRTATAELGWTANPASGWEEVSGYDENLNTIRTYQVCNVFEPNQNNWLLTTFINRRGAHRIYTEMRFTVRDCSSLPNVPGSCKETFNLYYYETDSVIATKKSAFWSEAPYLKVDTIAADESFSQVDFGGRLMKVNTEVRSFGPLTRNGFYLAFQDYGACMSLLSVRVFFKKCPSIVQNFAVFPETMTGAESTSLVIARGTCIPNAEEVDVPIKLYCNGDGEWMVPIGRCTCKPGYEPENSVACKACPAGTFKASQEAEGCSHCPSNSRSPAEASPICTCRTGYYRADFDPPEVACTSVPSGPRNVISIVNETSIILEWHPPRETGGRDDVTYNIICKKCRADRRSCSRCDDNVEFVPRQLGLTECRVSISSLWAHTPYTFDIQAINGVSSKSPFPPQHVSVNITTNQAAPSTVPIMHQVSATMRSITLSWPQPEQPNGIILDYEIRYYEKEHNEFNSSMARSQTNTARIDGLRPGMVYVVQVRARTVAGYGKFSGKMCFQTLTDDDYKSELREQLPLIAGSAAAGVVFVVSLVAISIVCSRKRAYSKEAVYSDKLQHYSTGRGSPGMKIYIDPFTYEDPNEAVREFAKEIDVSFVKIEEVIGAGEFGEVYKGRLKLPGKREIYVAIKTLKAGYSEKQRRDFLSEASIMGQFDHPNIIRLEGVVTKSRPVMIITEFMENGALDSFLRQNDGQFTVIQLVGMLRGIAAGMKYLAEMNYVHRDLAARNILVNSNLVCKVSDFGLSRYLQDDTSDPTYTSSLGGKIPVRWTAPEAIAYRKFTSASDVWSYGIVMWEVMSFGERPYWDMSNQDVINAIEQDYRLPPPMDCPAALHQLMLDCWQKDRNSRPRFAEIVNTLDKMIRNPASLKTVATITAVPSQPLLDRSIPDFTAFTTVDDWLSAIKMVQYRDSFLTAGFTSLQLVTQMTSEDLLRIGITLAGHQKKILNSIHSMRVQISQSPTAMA

[19] = target: Tyrosine-protein kinase Lyn (Homo sapiens) (UniProt P07948); assay: Inhibition of human LYN assessed as residual activity at 1 uM using polyEY as substrate in presence of 33P-ATP by ProQinase assay relative to control
Chain of Tyrosine-protein kinase Lyn (Homo sapiens) (P07948 2-512 limits assumed): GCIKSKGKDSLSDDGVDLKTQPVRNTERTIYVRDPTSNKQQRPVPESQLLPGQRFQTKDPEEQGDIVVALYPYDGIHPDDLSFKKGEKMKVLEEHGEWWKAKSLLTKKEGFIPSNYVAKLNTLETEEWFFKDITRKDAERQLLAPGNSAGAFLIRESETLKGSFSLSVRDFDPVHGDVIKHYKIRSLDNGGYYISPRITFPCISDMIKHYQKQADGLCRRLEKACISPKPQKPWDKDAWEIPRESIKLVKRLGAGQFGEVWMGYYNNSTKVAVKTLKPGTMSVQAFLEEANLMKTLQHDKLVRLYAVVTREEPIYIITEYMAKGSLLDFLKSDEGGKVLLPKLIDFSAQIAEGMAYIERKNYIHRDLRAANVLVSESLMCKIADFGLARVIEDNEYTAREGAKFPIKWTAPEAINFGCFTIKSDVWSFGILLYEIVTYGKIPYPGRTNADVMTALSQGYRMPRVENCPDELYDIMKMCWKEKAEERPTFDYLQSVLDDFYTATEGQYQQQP

[20] = target: MAP kinase-activated protein kinase 2 (Homo sapiens) (UniProt P49137); assay: Inhibition of human MAPKAPK2 assessed as residual activity at 1 uM using RBER-CHKtide as substrate in presence of 33P-ATP by ProQinase assay relative to control
[21] = target: Dual specificity mitogen-activated protein kinase kinase 1 (Homo sapiens) (UniProt Q02750); assay: Inhibition of human MEK1 assessed as residual activity at 1 uM using ERK2-KR as substrate in presence of 33P-ATP by ProQinase assay relative to control
[22] = target: Serine/threonine-protein kinase 24 (Homo sapiens) (UniProt Q9Y6E0); assay: Inhibition of human MST3 assessed as residual activity at 1 uM using casein as substrate in presence of 33P-ATP by ProQinase assay relative to control
Chain of Serine/threonine-protein kinase 24 (Homo sapiens) (Q9Y6E0 whole entry, looked up): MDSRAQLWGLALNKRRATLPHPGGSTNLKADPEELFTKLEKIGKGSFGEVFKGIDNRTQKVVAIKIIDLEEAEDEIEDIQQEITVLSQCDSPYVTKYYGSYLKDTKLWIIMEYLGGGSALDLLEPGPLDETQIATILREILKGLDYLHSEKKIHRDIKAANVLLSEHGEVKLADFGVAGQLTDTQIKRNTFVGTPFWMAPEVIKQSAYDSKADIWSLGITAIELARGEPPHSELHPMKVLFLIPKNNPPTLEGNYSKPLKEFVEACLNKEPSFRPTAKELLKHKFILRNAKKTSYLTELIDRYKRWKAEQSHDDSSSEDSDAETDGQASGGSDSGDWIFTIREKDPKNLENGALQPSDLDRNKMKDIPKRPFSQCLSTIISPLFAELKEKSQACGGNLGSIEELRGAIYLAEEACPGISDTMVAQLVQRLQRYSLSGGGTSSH

[23] = target: Serine/threonine-protein kinase Nek9 (Homo sapiens) (UniProt Q8TD19); assay: Inhibition of human NEK9 assessed as residual activity at 1 uM using RBER-GSK3 as substrate in presence of 33P-ATP by ProQinase assay relative to control
[24] = target: Platelet-derived growth factor receptor alpha (Homo sapiens) (UniProt P16234); assay: Inhibition of human PDGFRalpha assessed as residual activity at 1 uM using Poly(Ala,Glu,Lys,Tyr)6:2:5:1 as substrate in presence of 33P-ATP by ProQinase assay relative to control
[25] = target: Protein kinase C beta type (Homo sapiens) (UniProt P05771); assay: Inhibition of human PKCbeta2 assessed as residual activity at 1 uM using 3xChocktide-PKC as substrate in presence of 33P-ATP by ProQinase assay relative to control
Chain of Protein kinase C beta type (Homo sapiens) (P05771 2-671 limits assumed): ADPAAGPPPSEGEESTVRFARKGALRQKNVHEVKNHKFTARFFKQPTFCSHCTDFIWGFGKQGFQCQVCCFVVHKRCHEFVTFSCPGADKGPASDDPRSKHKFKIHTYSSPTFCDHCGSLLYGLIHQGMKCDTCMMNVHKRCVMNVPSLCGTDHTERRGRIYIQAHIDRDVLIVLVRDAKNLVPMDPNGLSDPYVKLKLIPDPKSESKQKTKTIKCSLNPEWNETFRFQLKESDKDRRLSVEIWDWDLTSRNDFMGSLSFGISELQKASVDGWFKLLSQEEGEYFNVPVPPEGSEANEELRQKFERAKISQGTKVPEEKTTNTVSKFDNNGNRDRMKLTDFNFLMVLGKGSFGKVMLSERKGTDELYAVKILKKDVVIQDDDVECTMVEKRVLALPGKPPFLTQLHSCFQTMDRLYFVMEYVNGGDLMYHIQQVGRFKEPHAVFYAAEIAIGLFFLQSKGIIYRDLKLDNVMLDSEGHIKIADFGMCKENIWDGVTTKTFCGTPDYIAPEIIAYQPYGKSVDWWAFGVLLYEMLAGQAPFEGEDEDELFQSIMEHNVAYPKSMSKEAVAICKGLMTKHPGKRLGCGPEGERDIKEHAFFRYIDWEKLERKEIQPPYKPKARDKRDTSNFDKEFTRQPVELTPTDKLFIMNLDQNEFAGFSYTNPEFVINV

[26] = target: Serine/threonine-protein kinase D2 (Homo sapiens) (UniProt Q9BZL6); assay: Inhibition of human PRKD2 assessed as residual activity at 1 uM using RBER-CHKtide as substrate in presence of 33P-ATP by ProQinase assay relative to control
Chain of Serine/threonine-protein kinase D2 (Homo sapiens) (Q9BZL6 whole entry): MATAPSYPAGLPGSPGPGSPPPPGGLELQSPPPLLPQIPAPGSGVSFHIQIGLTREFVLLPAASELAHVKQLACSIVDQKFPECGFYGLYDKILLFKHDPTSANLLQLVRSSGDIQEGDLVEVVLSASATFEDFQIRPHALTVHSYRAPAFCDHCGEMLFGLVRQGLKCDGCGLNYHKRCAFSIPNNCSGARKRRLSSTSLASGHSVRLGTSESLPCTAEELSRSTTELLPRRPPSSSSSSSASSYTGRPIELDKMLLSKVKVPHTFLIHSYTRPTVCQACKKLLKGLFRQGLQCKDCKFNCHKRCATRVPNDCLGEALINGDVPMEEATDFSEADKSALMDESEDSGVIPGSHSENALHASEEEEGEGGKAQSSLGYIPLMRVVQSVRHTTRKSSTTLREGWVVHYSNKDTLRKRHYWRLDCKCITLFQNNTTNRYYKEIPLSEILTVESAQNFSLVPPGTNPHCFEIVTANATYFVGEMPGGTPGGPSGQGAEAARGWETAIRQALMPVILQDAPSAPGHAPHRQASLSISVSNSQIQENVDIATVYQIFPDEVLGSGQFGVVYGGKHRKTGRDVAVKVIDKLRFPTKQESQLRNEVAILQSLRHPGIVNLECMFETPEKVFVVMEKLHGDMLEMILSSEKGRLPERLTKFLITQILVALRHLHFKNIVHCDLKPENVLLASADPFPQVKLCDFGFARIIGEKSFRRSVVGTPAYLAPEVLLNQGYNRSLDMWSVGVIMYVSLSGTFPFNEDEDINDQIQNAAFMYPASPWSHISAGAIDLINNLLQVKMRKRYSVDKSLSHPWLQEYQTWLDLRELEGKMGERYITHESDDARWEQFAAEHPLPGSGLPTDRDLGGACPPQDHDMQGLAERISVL

[27] = target: Angiopoietin-1 receptor (Homo sapiens) (UniProt Q02763); assay: Inhibition of human TIE2 assessed as residual activity at 1 uM using polyEY as substrate in presence of 33P-ATP by ProQinase assay relative to control
[28] = target: Tyrosine-protein kinase Yes (Homo sapiens) (UniProt P07947); assay: Inhibition of human YES assessed as residual activity at 1 uM using polyEY as substrate in presence of 33P-ATP by ProQinase assay relative to control

O=C1c2ccc(Nc3ccc(F)cc3F)cc2CCc2ccc(OC[C@H](O)CO)cc21 [Skepinone-L]
Activity [1]: 100%
Activity [2]: 100%
Activity [3]: 100%
Activity [4]: 82%
Activity [5]: 96%
Activity [6]: 97%
Activity [7]: 100%
Activity [8]: 96%
Activity [9]: 100%
Activity [10]: 100%
Activity [11]: 99%
Activity [12]: 94%
Activity [13]: 102%
Activity [14]: 112%
Activity [15]: 89%
Activity [16]: 89%
Activity [17]: 119%
Activity [18]: 116%
Activity [19]: 98%
Activity [20]: 80%
Activity [21]: 79%
Activity [22]: 106%
Activity [23]: 104%
Activity [24]: 91%
Activity [25]: 97%
Activity [26]: 85%
Activity [27]: 98%
Activity [28]: 119%
